ChEMBL document CHEMBL4138181, “Synthesis, molecular docking, and QSAR study of sulfonamide-based indoles as aromatase inhibitors” (Eur J Med Chem, 2018)
pIC50: −log10 of the molar value.

What was measured:
aromatase [1] = assay: Selectivity index, ratio of IC50 for GFP-expressing African green monkey Vero cells to IC50 for aromatase (unknown origin); format: toxicity; conditions: read-out: Ratio IC50
Vero = assay: Cytotoxicity against GFP-expressing African green monkey Vero cells after 4 days by fluorescence assay; format: cell-based; conditions: Chlorocebus sabaeus, 96 h
Aromatase [2] = target: T1, Aromatase (Homo sapiens, UniProt P11511); assay: Inhibition of aromatase (unknown origin) using O-benzyl fluorescein benzyl ester as substrate in presence of NADPH-generating system by fluorescence assay
T1 sequence (P11511 whole entry): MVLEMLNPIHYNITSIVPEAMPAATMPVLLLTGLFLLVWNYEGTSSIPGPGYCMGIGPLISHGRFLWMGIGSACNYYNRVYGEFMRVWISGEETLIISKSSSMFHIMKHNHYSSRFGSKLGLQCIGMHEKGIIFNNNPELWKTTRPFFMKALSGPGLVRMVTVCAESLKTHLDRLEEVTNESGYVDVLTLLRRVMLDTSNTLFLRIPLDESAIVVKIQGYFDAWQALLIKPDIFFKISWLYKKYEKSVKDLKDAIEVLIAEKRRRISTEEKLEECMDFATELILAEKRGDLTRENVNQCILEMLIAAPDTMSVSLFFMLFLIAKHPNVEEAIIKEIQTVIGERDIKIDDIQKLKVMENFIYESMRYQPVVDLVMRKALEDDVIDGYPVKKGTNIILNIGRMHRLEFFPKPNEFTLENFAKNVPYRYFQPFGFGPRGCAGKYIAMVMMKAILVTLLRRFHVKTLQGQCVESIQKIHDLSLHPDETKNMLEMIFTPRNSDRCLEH

| pIC50 (Aromatase [2]) | SMILES | selectivity ratio (aromatase [1]) | IC50 (Vero) [µg/mL] | pIC50 (Vero) |
| --- | --- | --- | --- | --- |
| 5.27 | O=S(=O)(NCCc1c(C(c2ccc(F)cc2)c2[nH]c3ccccc3c2CCNS(=O)(=O)c2ccc(Cl)cc2)[nH]c2ccccc12)c1ccc(Cl)cc1 | > 11.9 | > 50 | – |
| 5.42 | O=S(=O)(NCCc1c(C(c2ccc(C(F)(F)F)cc2)c2[nH]c3ccccc3c2CCNS(=O)(=O)c2ccc(Br)cc2)[nH]c2ccccc12)c1ccc(Br)cc1 | > 14.4 | > 50 | – |
| 5.40 | O=[N+]([O-])c1ccc(C(c2[nH]c3ccccc3c2CCNS(=O)(=O)c2ccc(C(F)(F)F)cc2)c2[nH]c3ccccc3c2CCNS(=O)(=O)c2ccc(C(F)(F)F)cc2)cc1 | > 14.4 | > 50 | – |
| 5.55 | COc1ccc(S(=O)(=O)NCCc2c(C3(c4[nH]c5ccccc5c4CCNS(=O)(=O)c4ccc(OC)cc4)C(=O)Nc4ccccc43)[nH]c3ccccc23)cc1 | > 22.6 | > 50 | – |
| 5.47 | O=S(=O)(NCCc1c(C(c2ccc(Br)cc2)c2[nH]c3ccccc3c2CCNS(=O)(=O)c2ccc(C(F)(F)F)cc2)[nH]c2ccccc12)c1ccc(C(F)(F)F)cc1 | 7.3 | – | 4.61 |
| 6.10 | COc1ccc(S(=O)(=O)NCCc2c(C(c3ccccc3O)c3[nH]c4ccccc4c3CCNS(=O)(=O)c3ccc(OC)cc3)[nH]c3ccccc23)cc1 | > 81.7 | > 50 | – |
| 5.39 | Cc1ccc(S(=O)(=O)NCCc2c(C(c3ccccc3O)c3[nH]c4ccccc4c3CCNS(=O)(=O)c3ccc(C)cc3)[nH]c3ccccc23)cc1 | 3.6 | – | 4.83 |
| 5.64 | O=[N+]([O-])c1cccc(S(=O)(=O)NCCc2c(C(c3ccc(O)cc3)c3[nH]c4ccccc4c3CCNS(=O)(=O)c3cccc([N+](=O)[O-])c3)[nH]c3ccccc23)c1 | > 27.4 | > 50 | – |
| 5.06 | O=S(=O)(NCCc1c(C(c2ccc3c(c2)Cc2ccccc2-3)c2[nH]c3ccccc3c2CCNS(=O)(=O)c2ccc(Cl)cc2)[nH]c2ccccc12)c1ccc(Cl)cc1 | > 6.72 | > 50 | – |
| 5.49 | O=S(=O)(NCCc1c(C(c2ccc(C(F)(F)F)cc2)c2[nH]c3ccccc3c2CCNS(=O)(=O)c2ccc(Cl)cc2)[nH]c2ccccc12)c1ccc(Cl)cc1 | 5.06 | – | 4.79 |
| 5.46 | O=[N+]([O-])c1ccc(C(c2[nH]c3ccccc3c2CCNS(=O)(=O)c2ccc(F)cc2)c2[nH]c3ccccc3c2CCNS(=O)(=O)c2ccc(F)cc2)cc1 | > 18.6 | > 50 | – |
| 5.46 | COc1ccc(S(=O)(=O)NCCc2c(C(c3ccccc3)c3[nH]c4ccccc4c3CCNS(=O)(=O)c3ccc(OC)cc3)[nH]c3ccccc23)cc1 | > 19.1 | > 50 | – |
| 5.85 | O=S(=O)(NCCc1c(C(c2ccc(O)cc2)c2[nH]c3ccccc3c2CCNS(=O)(=O)c2ccc(Cl)cc2)[nH]c2ccccc12)c1ccc(Cl)cc1 | 10.7 | – | 4.82 |
| 5.34 | O=[N+]([O-])c1ccccc1S(=O)(=O)NCCc1c(C(c2ccccc2O)c2[nH]c3ccccc3c2CCNS(=O)(=O)c2ccccc2[N+](=O)[O-])[nH]c2ccccc12 | > 13.7 | > 50 | – |
| 5.08 | O=C1Nc2ccccc2C1(c1[nH]c2ccccc2c1CCNS(=O)(=O)c1ccc(Cl)cc1)c1[nH]c2ccccc2c1CCNS(=O)(=O)c1ccc(Cl)cc1 | > 7.54 | > 50 | – |
| 5.36 | O=S(=O)(NCCc1c(C(c2ccc(F)cc2)c2[nH]c3ccccc3c2CCNS(=O)(=O)c2ccc(C(F)(F)F)cc2)[nH]c2ccccc12)c1ccc(C(F)(F)F)cc1 | 3.42 | – | 4.82 |
| 5.26 | N#Cc1ccc(C(c2[nH]c3ccccc3c2CCNS(=O)(=O)c2ccc(Cl)cc2)c2[nH]c3ccccc3c2CCNS(=O)(=O)c2ccc(Cl)cc2)cc1 | > 11.6 | > 50 | – |
| 5.01 | N#Cc1ccc(C(c2[nH]c3ccccc3c2CCNS(=O)(=O)c2ccc(F)cc2)c2[nH]c3ccccc3c2CCNS(=O)(=O)c2ccc(F)cc2)cc1 | > 6.8 | > 50 | – |

| pIC50 (Aromatase [2]) | SMILES | selectivity ratio (aromatase [1]) | IC50 (Vero) [µg/mL] | pIC50 (Vero) |
| --- | --- | --- | --- | --- |
| 5.01 | O=C1Nc2ccccc2C1(c1[nH]c2ccccc2c1CCNS(=O)(=O)c1ccccc1[N+](=O)[O-])c1[nH]c2ccccc2c1CCNS(=O)(=O)c1ccccc1[N+](=O)[O-] | > 6.22 | > 50 | – |
| 5.12 | O=S(=O)(NCCc1c(C(c2ccc(F)cc2)c2[nH]c3ccccc3c2CCNS(=O)(=O)c2ccc(Br)cc2)[nH]c2ccccc12)c1ccc(Br)cc1 | > 7.61 | > 50 | – |
| 5.38 | O=S(=O)(NCCc1c(C(c2ccccc2O)c2[nH]c3ccccc3c2CCNS(=O)(=O)c2ccc(Cl)cc2)[nH]c2ccccc12)c1ccc(Cl)cc1 | > 15.4 | > 50 | – |
| 5.41 | CCn1c2ccccc2c2ccc(C(c3[nH]c4ccccc4c3CCNS(=O)(=O)c3ccc(Cl)cc3)c3[nH]c4ccccc4c3CCNS(=O)(=O)c3ccc(Cl)cc3)cc21 | > 14.7 | > 50 | – |
| 4.92 | Cc1ccc(S(=O)(=O)NCCc2c(C(c3ccccc3)c3[nH]c4ccccc4c3CCNS(=O)(=O)c3ccc(C)cc3)[nH]c3ccccc23)cc1 | > 5.86 | > 50 | – |
| 5.89 | O=S(=O)(NCCc1c(C(c2ccc(O)cc2)c2[nH]c3ccccc3c2CCNS(=O)(=O)c2ccc(C(F)(F)F)cc2)[nH]c2ccccc12)c1ccc(C(F)(F)F)cc1 | 10.2 | – | 4.88 |
| 5.57 | O=S(=O)(NCCc1c(C(c2ccc(Br)cc2)c2[nH]c3ccccc3c2CCNS(=O)(=O)c2ccc(Cl)cc2)[nH]c2ccccc12)c1ccc(Cl)cc1 | 16.6 | – | 4.35 |
| 5.55 | O=[N+]([O-])c1ccc(S(=O)(=O)NCCc2c(C(c3ccccc3O)c3[nH]c4ccccc4c3CCNS(=O)(=O)c3ccc([N+](=O)[O-])cc3)[nH]c3ccccc23)cc1 | > 22.5 | > 50 | – |
| 4.95 | O=[N+]([O-])c1ccc(S(=O)(=O)NCCc2c(C(c3ccccc3)c3[nH]c4ccccc4c3CCNS(=O)(=O)c3ccc([N+](=O)[O-])cc3)[nH]c3ccccc23)cc1 | > 5.73 | > 50 | – |
| 5.60 | COc1ccc(S(=O)(=O)NCCc2c(C(c3cc(OC)c(O)c(OC)c3)c3[nH]c4ccccc4c3CCNS(=O)(=O)c3ccc(OC)cc3)[nH]c3ccccc23)cc1 | > 24.2 | > 50 | – |
| 6.15 | COc1ccc(S(=O)(=O)NCCc2c(C(c3ccc(O)cc3)c3[nH]c4ccccc4c3CCNS(=O)(=O)c3ccc(OC)cc3)[nH]c3ccccc23)cc1 | > 93.4 | > 50 | – |
| 5.64 | O=S(=O)(NCCc1c(C(c2ccc(C(F)(F)F)cc2)c2[nH]c3ccccc3c2CCNS(=O)(=O)c2ccc(C(F)(F)F)cc2)[nH]c2ccccc12)c1ccc(C(F)(F)F)cc1 | > 24.4 | > 50 | – |
| 5.57 | O=[N+]([O-])c1ccc(C(c2[nH]c3ccccc3c2CCNS(=O)(=O)c2ccc(Br)cc2)c2[nH]c3ccccc3c2CCNS(=O)(=O)c2ccc(Br)cc2)cc1 | > 20.8 | > 50 | – |
| 4.92 | O=C1Nc2ccccc2C1(c1[nH]c2ccccc2c1CCNS(=O)(=O)c1cccc([N+](=O)[O-])c1)c1[nH]c2ccccc2c1CCNS(=O)(=O)c1cccc([N+](=O)[O-])c1 | > 5.13 | > 50 | – |
| 4.82 | N#Cc1ccc(C(c2[nH]c3ccccc3c2CCNS(=O)(=O)c2ccc(C(F)(F)F)cc2)c2[nH]c3ccccc3c2CCNS(=O)(=O)c2ccc(C(F)(F)F)cc2)cc1 | > 3.85 | > 50 | – |
| 5.77 | O=[N+]([O-])c1cccc(S(=O)(=O)NCCc2c(C(c3ccccc3O)c3[nH]c4ccccc4c3CCNS(=O)(=O)c3cccc([N+](=O)[O-])c3)[nH]c3ccccc23)c1 | > 37 | > 50 | – |
| – | Cc1c2ccncc2c(C)c2c1[nH]c1ccccc12 [ELLIPTECINE] | – | – | 5.71 |
